Experimental findings from patent US20120202794A1 (priority 2011, published 2012) are described below.

Each structure is given as a SMILES string. Read-outs that look alike come from different tables or passages of the source. Bounds are passed on as bounds.

Data set [1] in a line: Cell cytotoxicity assay (MTS), CC90 as reported in Table 1, cell line not stated. The data set is classed as cell-based. The settings on record: human; MTS assay; 8 days incubation; cell line not given. The method in brief:
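Compounds, serially diluted from 100 μM, were incubated 8 days at 37° C with Huh7, HepG2 or BxPC3 (2×10^3 cells/well) or CEM (5×10^3 cells/well). Viability was read by MTS, 2 h, absorbance 490 nm. CC90 (90% inhibition) was taken against untreated cells.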
In general terms: Tetrazolium dyes change colour on reduction, which living cells bring about.

Data set [2] relates to HCV Replicon 1b. The data set is described as follows: HCV inhibition assay, HCV replicon 1b (Clone A or ET-lunet cells; RT-PCR or luciferase reporter). In kind it is cell-based. Conditions: Hepatitis C virus, 96 h, read-out: Replicon 1b potency EC90. In a few lines: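 Clone A (1500/well) or ET-lunet (3000/well) replicon cells treated with serially diluted compounds (0.5% DMSO, no G418) for 4 days at 37 °C. HCV RNA measured by one-step RT-PCR normalized to rRNA (ΔΔCt) or by luciferase luminescence versus DMSO controls; EC50/EC90 by curve fitting.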

The test system of data set [3] is genotype (GT) 1a H77 replicon. The experiment in a line: Replicon assay, H77 GT 1a replicon in Huh7-Lunet cells (RT-PCR). The data set is classed as cell-based, HCV. Conditions: Hepatitis C virus, GT1A, Huh-7, 96 h, 4 days incubation, read-out: RT-PCR H77 1a Potency EC90. As to the method: Cell Line and Maintenance: The genotype (GT) 1a H77 replicon (Apath LLC Brooklyn, N.Y.) was stably expressed in Huh7-Lunet cells (kindly provided by R. Bartenschlager University of Heidelberg, Heidelberg, Germany) and maintained in Dulbecco's modified Eagle's medium supplemented with 10% fetal bovine serum, 0.1 mM non essential amino acids (NEAA), 4 mM L-glutamine, 1 mM sodium pyruvate and 0.750 mg/mL G418 (Geneticin) (Invitrogen, Carlsbad, Calif.).
Replicon Assay: Inhibition of HCV in the H77 GT 1a replicon (Apath LLC, Brooklyn, N.Y.) was measured by Real-Time PCR (RT-PCR) Replicon cells were added to the plate at 1500 cells/well in 50 μL of medium and 50 μL of 2× drug dilutions were added (in duplicate) per well in a 96 well plate to total 100 μL per well. The plate was incubated at 37° C. in a humidified 8% CO2 atmosphere for 4 days. After incubation, the supernatant was discarded and total RNA was extracted with RNeasy 96 (Qiagen, Valencia Calif.) per manufacturer's instructions. The extracted RNA was amplified as described by Stuyver et al., J. Virol. (2003) 77: 10689-10694, and the ΔCt values for HCV were determined and the EC90 was calculated using GraphPad Prism software (San Diego, Calif.). A “no drug” (medium only) control was used to determine maximum amount of HCV RNA.
On the technique in general: Replicon systems follow genome replication, usually without infectious particles.

[4] abbreviates: HCV replicon 1b, 4 days incubation.

Turning to `CC(C)C[C@H]1C(=O)N[C@@H](c2ccccc2)CN1C(=O)c1noc(-c2ccc(F)cc2)n1` [Compound 292, (3S,6S)-4-(5-(4-Fluorophenyl)-1,2,4-oxadiazole-3-carbonyl)-3-isobutyl-6-phenylpiperazin-2-one], the CC90 at 8 days in data set [1] was > 10000 nM. In addition, the values for the EC90 in data set [2] (setting [4]) and in data set [3] were 78 nM and 79 nM, respectively.
Take `CC(C)C[C@H]1C(=O)N[C@@H](c2ccco2)CN1C(=O)c1cc(-c2ccc(F)cc2)on1` [Compound 484, (3S,6R)-4-(5-(4-fluorophenyl)isoxazole-3-carbonyl)-6-(furan-2-yl)-3-isobutylpiperazin-2-one]: the CC90 at 8 days in data set [1] was > 10000 nM. Besides, in data set [2] (setting [4]), the EC90 amounted to 180 nM.
In the same order, the values of `CC(C)C[C@H]1C(=O)N[C@H](c2ccc(Cl)s2)CN1C(=O)c1cc(-c2ccc(F)cc2)on1` [Compound 485, (3S,6S)-6-(5-chlorothiophen-2-yl)-4-(5-(4-fluorophenyl)isoxazole-3-carbonyl)-3-isobutylpiperazin-2-one] are > 10000 nM and > 10000 nM.
On the same counts, the results for `CC(C)C[C@H]1C(=O)N[C@@H](c2ccc(Cl)s2)CN1C(=O)c1cc(-c2ccc(F)cc2)on1` [Compound 488, (3S,6R)-6-(5-chlorothiophen-2-yl)-4-(5-(4-fluorophenyl)isoxazole-3-carbonyl)-3-isobutylpiperazin-2-one] are > 10000 nM and 700 nM.
In the same order, the values of `CCC[C@H]1C(=O)N[C@@H](c2cccs2)CN1C(=O)c1cc(-c2ccc(F)cc2)on1` [Compound 491, (3S,6R)-4-(5-(4-fluorophenyl)isoxazole-3-carbonyl)-3-propyl-6-(thiophen-2-yl)piper-azin-2-one] are > 10000 nM and 250 nM.
For the compound `CCC[C@H]1C(=O)N[C@@H](c2cccs2)CN1C(=O)[C@@H]1C[C@H]1c1ccc(F)cc1` [Compound 495, (3S,6R)-4-((1R,2R)-2-(4-fluorophenyl)cyclopropanecarbonyl)-3-propyl-6-(thiophen-2-yl)piperazin-2-one], in data set [1], the CC90 at 8 days was > 10000 nM. Further, in data set [2] (setting [4]), the EC90 is 290 nM.
In the same order, the values of `CC(C)C[C@H]1C(=O)N[C@@H](c2ccsc2Cl)CN1C(=O)[C@@H]1C[C@H]1c1ccc(F)cc1` [Compound 500, (3S,6S)-6-(2-chlorothiophen-3-yl)-4-((1R,2R)-2-(4-fluorophenyl)cyclopropane-carbonyl)-3-isobutylpiperazin-2-one] are > 10000 nM and 22 nM.
In the same order, the values of `C=C[C@H]1CN(C(=O)c2cc(-c3ccc(F)cc3)on2)[C@@H](CC(C)C)C(=O)N1` [Compound 506, (3S,6S)-4-(5-(4-fluorophenyl)isoxazole-3-carbonyl)-3-isobutyl-6-vinylpiperazin-2-one] are > 10000 nM and 1050 nM.
On the same counts, the results for `CC(C)C[C@H]1C(=O)N[C@@H](C(=O)N(C)C)CN1C(=O)c1cc(-c2ccc(F)cc2)on1` [Compound 507, (2R,5S)-4-(5-(4-fluorophenyl)isoxazole-3-carbonyl)-5-isobutyl-N,N-dimethyl-6-oxopiperazine-2-carboxamide] are > 10000 nM and 840 nM.
As to `CNC(=O)[C@H]1CN(C(=O)c2cc(-c3ccc(F)cc3)on2)[C@@H](CC(C)C)C(=O)N1` [Compound 508, (2R,5S)-4-(5-(4-fluorophenyl)isoxazole-3-carbonyl)-5-isobutyl-N-methyl-6-oxopiperazine-2-carboxamide], the CC90 at 8 days in data set [1] was > 10000 nM. In addition, in data set [2] (setting [4]), the concentration for an effect of 90% (EC90) is > 10000 nM.
Consider `CC(C)C[C@H]1C(=O)N[C@@H](c2ncco2)CN1C(=O)c1cc(-c2ccc(F)cc2)on1` [Compound 510, (3S,6R)-4-(5-(4-fluorophenyl)isoxazole-3-carbonyl)-3-isobutyl-6-(oxazol-2-yl)piperazin-2-one], for which, in data set [1], the CC90 at 8 days is > 10000 nM. In addition, the EC90 in data set [2] (setting [4]) is > 10000 nM.
As for `CC(C)C[C@H]1C(=O)N[C@@H](c2ccccc2)CN1C(C)c1cc(-c2ccc(F)cc2)on1` (stereo partly drawn) [Compound 511, (3S,6S)-4-(1-(5-(4-fluorophenyl)isoxazol-3-yl)ethyl)-3-isobutyl-6-phenylpiperazin-2-one], the CC90 at 8 days in data set [1] was > 10000 nM. In addition, the EC90 in data set [2] (setting [4]) came to 450 nM.
For the compound `CC(C)C[C@H]1C(=O)N[C@@H](c2cnco2)CN1C(=O)c1cc(-c2ccc(F)cc2)on1` [Compound 516, (3S,6R)-4-(5-(4-fluorophenyl)isoxazole-3-carbonyl)-3-isobutyl-6-(oxazol-5-yl)piperazin-2-one], the CC90 at 8 days in data set [1] was > 10000 nM. Also, the EC90 in data set [2] stood at 110 nM.
For `CC(C)C[C@H]1C(=O)N[C@@H](c2cnco2)CN1C(=O)[C@@H]1C[C@H]1c1ccccc1` [Compound 517, (3S,6R)-3-isobutyl-6-(oxazol-5-yl)-4-((1R,2R)-2-phenylcyclopropane-carbonyl)piperazin-2-one], the CC90 at 8 days in data set [1] was > 10000 nM. In addition, in data set [2] (setting [4]), the EC90 is 190 nM.
In the same order, the values of `CC(C)C[C@H]1C(=O)N[C@@H](c2cnco2)CN1C(=O)c1noc(-c2ccc(F)cc2)n1` [Compound 518, (3S,6R)-4-(5-(4-fluorophenyl)-1,2,4-oxadiazole-3-carbonyl)-3-isobutyl-6-(oxazol-5-yl)piperazin-2-one] are > 10000 nM and 58 nM.
In the same order, the values of `CC(C)C[C@H]1C(=O)N[C@@H](c2cnco2)CN1C(=O)c1cc(-c2ccc(F)cc2)no1` [Compound 519, (3S,6R)-4-(3-(4-fluorophenyl)isoxazole-5-carbonyl)-3-isobutyl-6-(oxazol-5-yl)piperazin-2-one] are > 10000 nM and 110 nM.
In the same order, the values of `CC(C)C[C@H]1C(=O)N[C@@H](c2cnco2)CN1C(=O)/C=C/c1ccc(F)cc1F` [Compound 520, (3S,6R)-4-((E)-3-(2,4-difluorophenyl)acryloyl)-3-isobutyl-6-(oxazol-5-yl)piperazin-2-one] are > 10000 nM and 470 nM.
As to `CC(C)C[C@H]1C(=O)N[C@@H](c2cnco2)CN1C(=O)c1cc(-c2ccc(F)cc2F)on1` [Compound 522, (3S,6R)-4-(5-(2,4-difluorophenyl)isoxazole-3-carbonyl)-3-isobutyl-6-(oxazol-5-yl)piperazin-2-one], the CC90 at 8 days in data set [1] was > 10000 nM. Besides, the EC90 in data set [2] (setting [4]) turned out to be 270 nM.
On the same counts, the results for `CC(C)C[C@H]1C(=O)N[C@@H](c2ccc[nH]2)CN1C(=O)c1cc(-c2ccc(F)cc2)on1` [Compound 523, (3S,6R)-4-(5-(4-fluorophenyl)isoxazole-3-carbonyl)-3-isobutyl-6-(1H-pyrrol-2-yl)piperazin-2-one] are > 10000 nM and 1060 nM.
Consider `CC(C)C[C@H]1C(=O)N[C@H](c2ccc[nH]2)CN1C(=O)c1cc(-c2ccc(F)cc2)on1` [Compound 524, (3S,6S)-4-(5-(4-fluorophenyl)isoxazole-3-carbonyl)-3-isobutyl-6-(1H-pyrrol-2-yl)piperazin-2-one], for which the CC90 at 8 days in data set [1] is > 10000 nM. Further, in data set [2] (setting [4]), the EC90 is > 10000 nM.
Take `CC(C)C[C@H]1C(=O)N[C@@H](c2ccccc2)N1C(=O)c1cc(-c2ccc(F)cc2)on1` [Compound 528, (2R,5S)-1-(5-(4-fluorophenyl)isoxazole-3-carbonyl)-5-isobutyl-2-phenylimidazolidin-4-one]: the CC90 at 8 days in data set [1] was > 10000 nM. The EC90 in data set [2] (setting [4]) is > 10000 nM.
Regarding `CC(C)C[C@H]1C(=O)N[C@H](c2ccccc2)N1C(=O)c1cc(-c2ccc(F)cc2)on1` [Compound 529, (2S,5S)-1-(5-(4-fluorophenyl)isoxazole-3-carbonyl)-5-isobutyl-2-phenylimidazolidin-4-one], the CC90 at 8 days in data set [1] is > 10000 nM. The EC90 in data set [2] (setting [4]) was > 10000 nM.
`CC(C)C[C@H]1C(=O)N[C@@H](c2ccccc2)N1C(=O)[C@H]1C[C@@H]1c1ccccc1` [Compound 530, (2R,5S)-5-isobutyl-2-phenyl-1-((1S,2S)-2-phenylcyclopropanecarbonyl)imidazolidin-4-one]: in data set [1], the CC90 at 8 days was > 10000 nM. Moreover, the concentration for an effect of 90% (EC90) in data set [2] (setting [4]) was > 10000 nM.
Regarding `CC(C)C[C@H]1C(=O)N[C@@H](c2ccccc2)N1C(=O)[C@H]1C[C@@H]1c1ccc(F)cc1` [Compound 532, (2R,5S)-1-((1S,2S)-2-(4-fluorophenyl)cyclopropanecarbonyl)-5-isobutyl-2-phenyl-imidazolidin-4-one], the CC90 at 8 days in data set [1] is > 10000 nM. In addition, the EC90 in data set [2] (setting [4]) was > 10000 nM.

In general, EC90 refers to the concentration needed for an effect of 90%.
